From the NIST ThermoML archive (doi:10.1021/je900550v)

Settings: 101.33 kPa, Liquid; for mass density: Vibrating tube method; for speed of sound: Pulse-echo method

CCC(=O)[O-].C[NH2+]CCO [2-hydroxy-N-methylethanaminium propionate]
Settings | mass density [kg/m3] | speed of sound [m/s] | viscosity [mPa·s]
293.15 K | 1074.5 | – | –
293.4 K | 1074.34 | 1704.1 | –
293.65 K | 1074.17 | 1703.4 | –
293.9 K | 1074.01 | 1702.6 | –
294.15 K | 1073.84 | 1701.9 | –
294.4 K | 1073.68 | 1701.1 | –
294.65 K | 1073.51 | 1700.4 | –
294.9 K | 1073.35 | 1699.7 | –
295.15 K | 1073.18 | 1698.9 | –
295.4 K | 1073.02 | 1698.2 | –
295.65 K | 1072.86 | 1697.4 | 256.14
295.9 K | 1072.7 | 1696.7 | –
296.15 K | 1072.54 | 1695.9 | –
296.4 K | 1072.38 | 1695.2 | –
296.65 K | 1072.22 | 1694.5 | –
296.9 K | 1072.07 | 1693.7 | –
297.15 K | 1071.9 | 1693 | –
297.4 K | 1071.74 | 1692.2 | –
297.65 K | 1071.59 | 1691.5 | –
297.9 K | 1071.43 | 1690.7 | –
298.15 K | 1071.27 | 1690 | 215.06
298.4 K | 1071.11 | 1689.3 | –
298.65 K | 1070.95 | 1688.5 | –
298.9 K | 1070.79 | 1687.8 | –
299.15 K | 1070.63 | 1687 | –
299.4 K | 1070.47 | 1686.3 | –
299.65 K | 1070.31 | 1685.5 | –
299.9 K | 1070.15 | 1684.8 | –
300.15 K | 1069.99 | 1684.1 | –
300.4 K | 1069.83 | 1683.3 | –
300.65 K | 1069.67 | 1682.6 | 182.88
300.9 K | 1069.51 | 1681.8 | –
301.15 K | 1069.35 | 1681.1 | –
301.4 K | 1069.18 | 1680.3 | –
301.65 K | 1069.02 | 1679.6 | –
301.9 K | 1068.86 | 1678.9 | –
302.15 K | 1068.69 | 1678.1 | –
302.4 K | 1068.53 | 1677.4 | –
302.65 K | 1068.38 | 1676.7 | –
302.9 K | 1068.21 | 1675.9 | –
303.15 K | 1068.05 | 1675.2 | 158.24
303.4 K | 1067.89 | 1674.5 | –
303.65 K | 1067.73 | 1673.7 | –
303.9 K | 1067.57 | 1673 | –
304.15 K | 1067.4 | 1672.3 | –
304.4 K | 1067.24 | 1671.5 | –
304.65 K | 1067.08 | 1670.8 | –
304.91 K | 1066.92 | 1670.1 | –
305.15 K | 1066.76 | 1669.3 | 140.88
305.4 K | 1066.59 | 1668.6 | –
305.65 K | 1066.42 | 1667.9 | –
305.9 K | 1066.27 | 1667.1 | –
306.15 K | 1066.1 | 1666.4 | –
306.4 K | 1065.94 | 1665.7 | –
306.65 K | 1065.77 | 1664.9 | –
306.9 K | 1065.61 | 1664.2 | –
307.15 K | 1065.45 | 1663.5 | –
307.4 K | 1065.28 | 1662.7 | –
307.65 K | 1065.12 | 1662 | –
307.9 K | 1064.95 | 1661.2 | –
